Laboratory results reported in DBAASP.
Converted amounts (≈) assume the structure as drawn. Blank lines part the entries; values can stand above or below the compound they belong to.

Experiments:
Assay in all cases: ≥ marks a high value that may be exact or a test limit, other limits are often not marked, values filed in µg/mL are converted to µM
[1] = test system: Escherichia coli ATCC 25922
[2] = test system: Pseudomonas aeruginosa PAO1
[3] = test system: Salmonella enterica serovar Typhimurium
[4] = test system: Staphylococcus aureus ATCC 25923
[5] = test system: Candida albicans NCYC 1467
[6] = test system: Staphylococcus aureus NCTC 10788
[7] = test system: Bacillus subtilis KCTC 3068
Enterococcus faecium = test system: Enterococcus faecium
[8] = test system: Escherichia coli KCTC 1682
[9] = test system: Salmonella typhimurium KCTC 1926
[10] = test system: Staphylococcus aureus KCTC 1621
Staphylococcus aureus = test system: Staphylococcus aureus
Candida albicans = test system: Candida albicans
[11] = test system: Enterococcus faecalis ATCC 29212
Escherichia coli UB1005 = test system: Escherichia coli UB1005
[12] = test system: Pseudomonas aeruginosa H103
[13] = test system: Staphylococcus epidermidis
[14] = test system: Pseudomonas aeruginosa KCTC 1637
[15] = test system: Staphylococcus epidermidis KCTC 1917
[16] = test system: Escherichia coli ATCC 11775
[17] = test system: Staphylococcus aureus ATCC 12600
[18] = test system: Pseudomonas aeruginosa Ps4
[19] = test system: Escherichia coli NCTC 10418

MIC [1]: 21.4 µM (≈ 32 µg/mL)
MIC [2]: 85.6 µM (≈ 128 µg/mL)
MIC [3]: ≥ 42.8 µM
MIC [4]: 21.4 µM (≈ 32 µg/mL)
Compound: CC[C@H](C)[C@H](NC(=O)[C@H](CCCN=C(N)N)NC(=O)[C@H](Cc1c[nH]c2ccccc12)NC(=O)[C@H](CCC(N)=O)NC(=O)[C@@H](N)CCCCN)C(=O)N[C@@H](CCCN=C(N)N)C(=O)N[C@H](C(=O)N[C@@H](C)C(=O)N[C@H](C(=O)N[C@H](C(=O)N[C@@H](CCCN=C(N)N)C(=O)N[C@@H](C)C(=O)O)[C@@H](C)CC)C(C)C)C(C)C [KQWRIRVAVIRA]

MIC [5]: ≥ 35 µM
MIC [6]: 17.5 µM (≈ 32 µg/mL)
Compound: CC[C@H](C)[C@H](NC(=O)[C@H](C)NC(=O)[C@H](CC(C)C)NC(=O)[C@@H]1CCCN1C(=O)[C@@H](NC(=O)[C@H](CCSC)NC(=O)CNC(=O)[C@H](CC(C)C)NC(=O)[C@@H](N)CC(C)C)[C@@H](C)CC)C(=O)N[C@@H](CO)C(=O)N[C@@H](C)C(=O)N[C@H](C(=O)N[C@@H](CO)C(=O)N[C@@H](CO)C(=O)N[C@@H](CC(C)C)C(=O)N[C@@H](CO)C(=O)N[C@@H](CCCCN)C(=O)N[C@@H](CC(C)C)C(N)=O)[C@@H](C)CC [LLGMIPLAISAISSLSKL]

MIC [7]: 1.26 µM (≈ 2 µg/mL)
MIC (Enterococcus faecium): 1.79 µM (≈ 2.83 µg/mL)
MIC [8]: 1.26 µM (≈ 2 µg/mL)
MIC [9]: 2.53 µM (≈ 4 µg/mL)
MIC [10]: 1.26 µM (≈ 2 µg/mL)
MIC (Staphylococcus aureus): 2.53 µM (≈ 4 µg/mL)
Compound: NC(=O)[C@H](CCCN=C(N)N)NC(=O)[C@H](CCCN=C(N)N)NC(=O)[C@H](Cc1c[nH]c2ccccc12)NC(=O)[C@@H]1CCCN1C(=O)[C@H](Cc1c[nH]c2ccccc12)NC(=O)[C@H](Cc1c[nH]c2ccccc12)NC(=O)[C@@H]1CCCN1C(=O)[C@H](Cc1c[nH]c2ccccc12)NC(=O)[C@H](CCCN=C(N)N)NC(=O)[C@@H](N)CCCN=C(N)N [RRWPWWPWRR]

MIC (Candida albicans): 21.4 µM (≈ 27.8 µg/mL)
MIC [11]: 5.3 µM (≈ 6.88 µg/mL)
MIC (Escherichia coli UB1005): 1.3 µM (≈ 1.69 µg/mL)
MIC [12]: 10.7 µM (≈ 13.9 µg/mL)
MIC [3]: 5.3 µM (≈ 6.88 µg/mL)
MIC [4]: 2.7 µM (≈ 3.51 µg/mL)
MIC [13]: 1.3 µM (≈ 1.69 µg/mL)
Compound: CC[C@H](C)[C@H](NC(=O)[C@@H](NC(=O)[C@@H](NC(=O)[C@H](CCCN=C(N)N)NC(=O)[C@H](CCCN=C(N)N)NC(=O)[C@H](CCC(N)=O)NC(=O)[C@@H](N)CCCN=C(N)N)C(C)C)C(C)C)C(=O)N[C@@H](Cc1c[nH]c2ccccc12)C(=O)N[C@@H](Cc1c[nH]c2ccccc12)C(=O)O [RQRRVVIWW]

MIC (Candida albicans): 10.7 µM (≈ 15.1 µg/mL)
MIC [11]: 2.7 µM (≈ 3.8 µg/mL)
MIC (Escherichia coli UB1005): 1.3 µM (≈ 1.83 µg/mL)
MIC [12]: 10.7 µM (≈ 15.1 µg/mL)
MIC [3]: 2.7 µM (≈ 3.8 µg/mL)
MIC [4]: 1.3 µM (≈ 1.83 µg/mL)
MIC [13]: 1.3 µM (≈ 1.83 µg/mL)
Compound: CC[C@H](C)[C@H](NC(=O)[C@H](CCCN=C(N)N)NC(=O)[C@@H](NC(=O)[C@H](Cc1c[nH]c2ccccc12)NC(=O)[C@H](Cc1c[nH]c2ccccc12)NC(=O)[C@@H](N)CCCN=C(N)N)[C@@H](C)CC)C(=O)N[C@@H](CCCN=C(N)N)C(=O)N[C@@H](Cc1c[nH]c2ccccc12)C(=O)N[C@@H](Cc1cnc[nH]1)C(=O)O [RWWIRIRWH]

MIC (Candida albicans): 16 µM (≈ 25.3 µg/mL)
MIC [11]: 2 µM (≈ 3.17 µg/mL)
MIC (Escherichia coli UB1005): 4 µM (≈ 6.33 µg/mL)
MIC [12]: 8 µM (≈ 12.7 µg/mL)
MIC [3]: 4 µM (≈ 6.33 µg/mL)
MIC [4]: 1 µM (≈ 1.58 µg/mL)
MIC [13]: 0.5 µM (≈ 0.792 µg/mL)
Compound: CC[C@H](C)[C@H](NC(=O)[C@H](CCCN=C(N)N)NC(=O)[C@H](CCCN=C(N)N)NC(=O)[C@H](CC(C)C)NC(=O)[C@@H](N)CCCN=C(N)N)C(=O)N[C@H](C(=O)N[C@H](C(=O)N[C@H](C(=O)N[C@@H](CCCN=C(N)N)C(=O)N[C@H](C(=O)N[C@@H](Cc1ccccc1)C(=O)N[C@@H](CCCN=C(N)N)C(=O)O)C(C)C)[C@@H](C)CC)C(C)C)C(C)C [RLRRIVVIRVFR]

MIC [7]: 8.97 µM (≈ 12.5 µg/mL)
MIC [8]: 8.97 µM (≈ 12.5 µg/mL)
MIC [14]: 8.97 µM (≈ 12.5 µg/mL)
MIC [9]: 4.48 µM (≈ 6.25 µg/mL)
MIC [10]: 8.97 µM (≈ 12.5 µg/mL)
MIC [15]: 8.97 µM (≈ 12.5 µg/mL)
Compound: CC[C@H](C)[C@H](NC(=O)[C@H](CCCCN)NC(=O)[C@H](CC(C)C)NC(=O)[C@H](CC(C)C)NC(=O)[C@@H](N)CCCCN)C(=O)N[C@H](C(=O)N[C@H](C(=O)N[C@H](C(=O)N[C@@H](CCCCN)C(=O)N[C@H](C(=O)N[C@@H](CC(C)C)C(=O)N[C@@H](CCCCN)C(N)=O)C(C)C)[C@@H](C)CC)C(C)C)C(C)C [KLLKIVVIKVLK]

MIC [16]: 3 µM (≈ 4.38 µg/mL)
MIC [17]: 6 µM (≈ 8.76 µg/mL)
Compound: CC[C@H](C)[C@H](N)C(=O)N[C@H](C(=O)N1CCC[C@H]1C(=O)N[C@@H](CC(C)C)C(=O)N1CCC[C@H]1C(=O)N[C@@H](CC(C)C)C(=O)NCC(=O)N[C@@H](Cc1ccc(O)cc1)C(=O)N[C@@H](Cc1ccccc1)C(=O)N[C@@H](C)C(=O)N[C@@H](CCCCN)C(=O)N[C@@H](CCCCN)C(=O)N[C@H](C(=O)O)[C@@H](C)O)[C@@H](C)CC [IIPLPLGYFAKKT]

MIC [7]: 2 µM (≈ 3.53 µg/mL)
MIC [8]: 4 µM (≈ 7.06 µg/mL)
MIC [14]: 8 µM (≈ 14.1 µg/mL)
MIC [9]: 4 µM (≈ 7.06 µg/mL)
MIC [10]: 4 µM (≈ 7.06 µg/mL)
MIC [15]: 4 µM (≈ 7.06 µg/mL)
Compound: C[C@@H](O)[C@H](NC(=O)[C@H](Cc1c[nH]c2ccccc12)NC(=O)[C@H](Cc1c[nH]c2ccccc12)NC(=O)[C@@H](NC(=O)[C@H](CCCCN)NC(=O)[C@H](Cc1c[nH]c2ccccc12)NC(=O)[C@H](Cc1c[nH]c2ccccc12)NC(=O)[C@@H](NC(=O)[C@H](CCCCN)NC(=O)[C@@H](N)CCCCN)[C@@H](C)O)[C@@H](C)O)C(=O)N[C@@H](CCCCN)C(=O)N[C@@H](Cc1c[nH]c2ccccc12)C(=O)O [KKTWWKTWWTKW]

MIC [18]: ≥ 180 µM
Compound: CC[C@H](C)[C@H](NC(=O)[C@H](CC(N)=O)NC(=O)[C@H](CCCN=C(N)N)NC(=O)[C@@H](NC(=O)[C@H](Cc1c[nH]c2ccccc12)NC(=O)[C@@H](N)Cc1ccccc1)[C@@H](C)CC)C(=O)N[C@@H](CCCN=C(N)N)C(=O)N[C@@H](CCCCN)C(=O)N[C@H](C(=O)N[C@@H](CCCN=C(N)N)C(N)=O)C(C)C [FWIRNIRKVR]

MIC [18]: ≥ 196 µM
Compound: CC[C@H](C)[C@H](NC(=O)[C@H](CC(N)=O)NC(=O)[C@H](CCCN=C(N)N)NC(=O)[C@H](CCC(N)=O)NC(=O)[C@H](Cc1c[nH]c2ccccc12)NC(=O)[C@@H](N)Cc1ccccc1)C(=O)N[C@@H](CCCN=C(N)N)C(=O)N[C@H](C(=O)N[C@@H](CCCN=C(N)N)C(N)=O)C(C)C [FWQRNIRVR]

MIC [5]: 16 µM (≈ 42.4 µg/mL)
MIC [19]: 16 µM (≈ 42.4 µg/mL)
MIC [6]: 8 µM (≈ 21.2 µg/mL)
Compound: CC[C@H](C)[C@H](NC(=O)[C@H](CC(=O)O)NC(=O)[C@H](CCCCN)NC(=O)[C@H](Cc1c[nH]c2ccccc12)NC(=O)[C@H](CC(C)C)NC(=O)[C@H](C)N)C(=O)N[C@@H](CC(C)C)C(=O)N[C@@H](CCCCN)C(=O)N[C@@H](CC(N)=O)C(=O)N[C@@H](CC(C)C)C(=O)N[C@@H](CC(C)C)C(=O)N[C@@H](CCCCN)C(=O)N[C@@H](C)C(=O)N[C@@H](C)C(=O)N[C@@H](CC(C)C)C(=O)N[C@@H](CC(N)=O)C(=O)N[C@@H](CCC(=O)O)C(=O)N[C@H](C(=O)N[C@@H](CC(N)=O)C(=O)N[C@@H](CCC(N)=O)C(=O)N[C@H](C(=O)N[C@H](C(=O)N[C@@H](CCC(N)=O)C(N)=O)C(C)C)[C@@H](C)CC)[C@@H](C)CC [ALWKDILKNLLKAALNEINQIVQ]

MIC [18]: ≥ 250 µM
Compound: CC[C@H](C)[C@H](NC(=O)[C@H](CC(N)=O)NC(=O)[C@H](CCCN=C(N)N)NC(=O)[C@@H](NC(=O)[C@H](Cc1c[nH]c2ccccc12)NC(=O)[C@@H](N)Cc1ccccc1)C(C)C)C(=O)N[C@@H](CCCN=C(N)N)C(=O)N[C@@H](CCCCN)C(=O)N[C@H](C(=O)N[C@@H](CCCN=C(N)N)C(N)=O)C(C)C [FWVRNIRKVR]

MIC [18]: ≥ 137 µM
Compound: CC[C@H](C)[C@H](NC(=O)[C@H](CCCN=C(N)N)NC(=O)[C@H](CCCN=C(N)N)NC(=O)[C@H](CCCN=C(N)N)NC(=O)[C@@H](NC(=O)[C@H](CCCCN)NC(=O)[C@H](CCCN=C(N)N)NC(=O)[C@@H](NC(=O)[C@H](CC(N)=O)NC(=O)[C@H](CCCN=C(N)N)NC(=O)[C@H](CCC(N)=O)NC(=O)[C@H](Cc1c[nH]c2ccccc12)NC(=O)[C@@H](N)Cc1ccccc1)[C@@H](C)CC)C(C)C)C(N)=O [FWQRNIRKVRRRI]
